Measurements taken from patent publication US6160004A, “C-10 carbon-substituted artemisinin-like trioxane compounds having antimalarial, antiproliferative and antitumor activities” (priority 1998, dated 2000).
Like-named read-outs stand apart in the source and are kept apart here.

How the values were obtained:
UO-31 = test: NCI 60 cell line panel screening assay (SRB), UO-31; assay type: cell-based; details: Homo sapiens, UO-31, renal cancer, 48 h
NCI-H226 = test: cells; assay type: cell-based; details: Homo sapiens, NCI-H226, 48 h, read-out: Log10 GI50 (converted)
ACHN = test: NCI 60 cell line panel screening assay (SRB), ACHN; assay type: cell-based; details: Homo sapiens, renal cancer, 48 h
SNB-75 = test: cells; assay type: cell-based; details: Homo sapiens; SNB-75, CNS cancer, 48 h; read-out: Log10 LC50 (converted)
MOLT-4 = test: cells; details: Homo sapiens
SK-MEL-2 = test: cells; assay type: cell-based; details: Homo sapiens, SK-MEL-2, melanoma, 48 h
MDA-MB435 = test: NCI 60 cell line panel screening assay (SRB), MDA-MB435; assay type: cell-based; details: Homo sapiens
HS 578T = test: cells; assay type: cell-based; details: Homo sapiens, HS 578T, breast cancer, 48 h
NCI-H460 = test: cells; assay type: cell-based; details: Homo sapiens; NCI-H460, non-small cell lung cancer, 48 h; read-out: Log10 GI50 (converted)
MCF7/ADR-RES = test: cells; assay type: cell-based; details: Homo sapiens, MCF7/ADR-RES, breast cancer, 48 h
OVCAR-4 = test: cells; assay type: cell-based; details: Homo sapiens
A549/ATCC = test: NCI 60 cell line panel screening assay (SRB), A549/ATCC; assay type: cell-based; details: Homo sapiens, non-small cell lung cancer, 48 h, read-out: Log10 GI50 (converted)
KM12 = test: cells; assay type: cell-based; details: Homo sapiens, KM12, colon cancer, 48 h
MALME-3M = test: cells; assay type: cell-based; details: Homo sapiens, 48 h
RPMI-8226 = test: NCI 60 cell line panel screening assay (SRB), RPMI-8226; assay type: cell-based; details: Homo sapiens
HOP-62 = test: cells; assay type: cell-based; details: Homo sapiens, HOP-62, non-small cell lung cancer, 48 h
EKVX = test: NCI 60 cell line panel screening assay (SRB), EKVX; assay type: cell-based; details: Homo sapiens, non-small cell lung cancer, 48 h, read-out: Log10 GI50 (converted)
MDA-MB231/ATCC = test: cells; assay type: cell-based; details: Homo sapiens, MDA-MB-231, breast cancer, 48 h
RXF 393 = test: cells; assay type: cell-based; details: Homo sapiens, RXF 393, renal cancer, 48 h
NCI-H522 = test: cells; assay type: cell-based; details: Homo sapiens
[1] = system: chloroquine-sensitive P. falciparum (NF54); test: In vitro antimalarial activity ([3H]hypoxanthine incorporation); assay type: cell-based
PC-3 = test: cells; assay type: cell-based; details: Homo sapiens, PC-3, prostate cancer, 48 h
LOX IMVI = test: cells; assay type: cell-based; details: Homo sapiens, melanoma, 48 h
SF-295 = test: cells; assay type: cell-based; details: Homo sapiens, SF-295, CNS cancer, 48 h
UACC-62 = test: cells; assay type: cell-based; details: Homo sapiens
U251 = test: cells; assay type: cell-based; details: Homo sapiens, U-251, U251, CNS cancer, 48 h
HL-60(TB) = test: cells; assay type: cell-based; details: Homo sapiens
SF-539 = test: cells; assay type: cell-based; details: Homo sapiens, SF-539, CNS cancer, 48 h
SW-620 = test: NCI 60 cell line panel screening assay (SRB), SW-620; assay type: cell-based; details: Homo sapiens
[2] = read-out: Log10 GI50 (converted)
[3] = read-out: Log10 LC50 (converted)

CC1CCC2C(C)C(CC(=O)c3cccc(C(=O)CC4OC5OC6(C)CCC7C(C)CCC(C4C)C57OO6)c3)OC3OC4(C)CCC1C32OO4 (centres unmarked) [Dimer 39]
GI50 (UO-31; [2]): > 100 µM | CC50 (UO-31; [3]): > 100 µM | IC (TGI) (UO-31; read-out: Log10 TGI): > 100 µM | GI50 (NCI-H226): 29.5 µM | GI50 (ACHN; [2]): > 100 µM | IC (TGI) (ACHN; read-out: Log10 TGI): > 100 µM | CC50 (SNB-75): > 100 µM | CC50 (MOLT-4; MOLT-4, 48 h, read-out: Log10 LC50 (converted)): > 100 µM | IC (TGI) (MOLT-4; MOLT-4, 48 h, read-out: Log10 TGI): > 100 µM | CC50 (MOLT-4; MOLT-4, read-out: concentration for cytotoxicity (PG -50)): > 100 µM | IC50 (MOLT-4; MOLT-4, read-out: concentration for primary growth inhibition (PG +50)): > 100 µM | GI50 (SK-MEL-2; [2]): > 100 µM | CC50 (SK-MEL-2; [3]): > 100 µM | IC (TGI) (SK-MEL-2; read-out: Log10 TGI): > 100 µM | CC50 (MDA-MB435; MDA-MB-435, 48 h, read-out: Log10 LC50 (converted)): > 100 µM | GI50 (MDA-MB435; MDA-MB-435, printed MDA-MBA35, breast cancer, 48 h, read-out: Log10 GI50 (converted)): > 100 µM | GI50 (HS 578T; [2]): > 100 µM | CC50 (HS 578T; [3]): > 100 µM | GI50 (NCI-H460): > 100 µM | GI50 (MCF7/ADR-RES; [2]): > 100 µM | CC50 (MCF7/ADR-RES; [3]): > 100 µM | IC (TGI) (OVCAR-4; OVCAR-4, 48 h, read-out: Log10 TGI): > 100 µM | GI50 (OVCAR-4; OVCAR-4, ovarian cancer, 48 h, read-out: Log10 GI50 (converted)): > 100 µM | CC50 (OVCAR-4; OVCAR-4, ovarian cancer, 48 h, read-out: Log10 LC50 (converted)): > 100 µM | GI50 (A549/ATCC): > 100 µM | GI50 (KM12; [2]): > 100 µM | CC50 (KM12; [3]): > 100 µM | IC (TGI) (MALME-3M; Malme-3M, read-out: Log10 TGI): > 100 µM | GI50 (MALME-3M; MALME-3M, melanoma, read-out: Log10 GI50 (converted)): > 100 µM | LC50 (50% lethal concentration) (MALME-3M; MALME-3M, melanoma, read-out: Log10 LC50 (converted)): > 100 µM | CC50 (RPMI-8226; RPMI-8226, 48 h, read-out: Log10 LC50 (converted)): > 100 µM | GI50 (RPMI-8226; RPMI-8226, leukemia, 48 h, read-out: Log10 GI50 (converted)): > 100 µM | IC (TGI) (RPMI-8226; RPMI-8226, leukemia, 48 h, read-out: Log10 TGI): > 100 µM | GI50 (HOP-62; [2]): > 100 µM | LC50 (HOP-62; [3]): > 100 µM | GI50 (EKVX): > 100 µM | GI50 (MDA-MB231/ATCC; [2]): > 100 µM | CC50 (MDA-MB231/ATCC; [3]): > 100 µM | GI50 (RXF 393; [2]): > 100 µM | CC50 (RXF 393; [3]): > 100 µM | IC (TGI) (RXF 393; read-out: Log10 TGI): > 100 µM | CC50 (NCI-H522; NCI-H522, 48 h, read-out: Log10 LC50 (converted)): > 100 µM | GI50 (NCI-H522; NCI-H522, non-small cell lung cancer, 48 h, read-out: Log10 GI50 (converted)): > 100 µM | in vitro antimalarial potency relative to artemisinin ([1]; P. falciparum NF54): more potent than artemisinin | IC50 ([1]; Plasmodium falciparum, chloroquine-sensitive P. falciparum NF54, in vitro): 0.0019 µM | GI50 (PC-3; [2]): > 100 µM | LC50 (PC-3; [3]): > 100 µM | GI50 (LOX IMVI; [2]): > 100 µM | CC50 (LOX IMVI; [3]): > 100 µM | IC (TGI) (LOX IMVI; read-out: Log10 TGI (converted)): > 100 µM | GI50 (SF-295; [2]): > 100 µM | CC50 (SF-295; [3]): > 100 µM | IC (TGI) (UACC-62; UACC-62, 48 h, read-out: Log10 TGI): > 100 µM | GI50 (UACC-62; UACC-62, melanoma, 48 h, read-out: Log10 GI50 (converted)): > 100 µM | LC50 (UACC-62; UACC-62, melanoma, 48 h, read-out: Log10 LC50 (converted)): > 100 µM | GI50 (U251; [2]): > 100 µM | CC50 (U251; [3]): > 100 µM | CC50 (HL-60(TB); HL-60, 48 h, read-out: Log10 LC50 (converted)): > 100 µM | GI50 (HL-60(TB); HL-60(TB), leukemia, 48 h, read-out: Log10 GI50 (converted)): > 100 µM | IC (TGI) (HL-60(TB); HL-60(TB), leukemia, 48 h, read-out: Log10 TGI): > 100 µM | GI50 (SF-539; [2]): > 100 µM | CC50 (SF-539; [3]): > 100 µM | GI50 (SW-620; SW-620, 48 h, read-out: Log10 GI50 (converted)): > 100 µM | CC50 (SW-620; SW-620, colon cancer, 48 h, read-out: Log10 LC50 (converted)): > 100 µM | IC (TGI) (SW-620; SW-620, colon cancer, 48 h, read-out: Log10 TGI): > 100 µM
